{"source": "patent US20070092440A1", "about": "“Bone localising radiopharmaceutical and tubulin-interacting compound combinatorial” (priority 2003, published 2007)", "origin": "cited, not measured here", "key": {"[1]": {"system": "bone pain, osteoblastic metastatic bone lesions", "conditions": "for treated patients with symptomatic relief of bone pain: in vivo"}, "[2]": {"conditions": "supplied frozen"}, "[3]": {"conditions": "in vivo"}, "[4]": {"conditions": "in bone"}, "[5]": {"conditions": "repeated dosing with 1.0 mCi/kg"}, "[6]": {"system": "leukocyte and platelet counts", "conditions": "1.0 mCi/kg"}, "[7]": {"system": "HRPC patients with bone metastases"}}, "data": [{"compound": "O=P([O-])(O)CN(CCN(CP(=O)([O-])O)CP(=O)(O)O)CP(=O)([O-])O.[153Sm+3]", "note": "[samarium Sm 153 lexidronam]", "values": [{"measurement": "time in which the majority of excretion occurs", "setting": "after administration", "value": "≤ 8", "unit": "h"}, {"measurement": "time to complete excretion", "setting": "after administration", "value": "≤ 12", "unit": "h"}, {"measurement": "clearance route", "setting": "in vivo", "value": "exclusively renal"}, {"measurement": "uptake by nonosseous tissue", "setting": "in vivo", "value": "no significant uptake"}, {"measurement": "patients with pain relief at Week 4 who still had pain relief at Week 16", "setting": "[1]; 1.0 mCi/kg dose group", "value": "two-thirds"}, {"measurement": "treated patients with symptomatic relief of bone pain", "setting": "[1]", "value": "approximately 80%"}, {"measurement": "drug product expiry after the time of calibration", "setting": "[2]", "value": 48, "unit": "h"}, {"measurement": "myelosuppression", "setting": "[3]", "value": "Myelosuppression has been observed"}, {"measurement": "range of emission", "setting": "[4]", "value": 1.7, "unit": "mm"}, {"measurement": "cumulative toxicity on repeated dosing", "setting": "[5]", "value": "not associated with cumulative toxicity"}, {"measurement": "median time of nadir of leukocyte and platelet counts", "setting": "[6]", "value": 4, "unit": "weeks"}, {"measurement": "patients with Grade 3/4 haematologic toxicity", "setting": "[6]", "value": "< 10", "unit": "%"}, {"measurement": "time by which recovery of counts is generally complete", "setting": "[6]", "value": "5-8 weeks"}]}, {"compound": "CC(=O)O[C@@]12CO[C@@H]1C[C@H](O)[C@@]1(C)C(=O)[C@H](O)C3=C(C)[C@@H](OC(=O)[C@H](O)[C@@H](NC(=O)OC(C)(C)C)c4ccccc4)C[C@@](O)([C@@H](OC(=O)c4ccccc4)[C@H]21)C3(C)C", "note": "[docetaxel]", "values": [{"measurement": "myelosuppression", "setting": "[3]", "value": "Myelosuppression has been observed"}]}, {"compound": "[89Sr+2].[Cl-].[Cl-]", "note": "[strontium 89 chloride]", "values": [{"measurement": "treated patients with symptomatic relief of bone pain", "setting": "[1]", "value": "approximately 80%"}]}, {"compound": "COc1cccc2c1C(=O)c1c(O)c3c(c(O)c1C2=O)C[C@@](O)(C(=O)CO)C[C@@H]3O[C@H]1C[C@H](N)[C@H](O)[C@H](C)O1", "note": "[doxorubicin]", "values": [{"measurement": "overall survival", "setting": "[7]; 72 HRPC patients with bone metastases, randomized", "value": 16.8, "unit": "months"}, {"measurement": "incidence of Grade 3/4 neutropenia", "setting": "[7]; in vivo", "value": 22, "unit": "%"}]}]}
